The source made the active and inactive calls. Positions of bridges follow the written chain, without caps; N, C: chain ends. Residues, ends and D or L forms follow the SMILES beside them.
Legend:
Type in all cases: cell-based
[1] = target: Neuronal acetylcholine receptor; alpha2/beta4 (Rattus norvegicus) (UniProt P12389+P12392); assay: Antagonist activity at rat alpha2beta4 nAChR expressed in Xenopus laevis oocytes assessed as inhibition of Ach-induced response up to 10 uM at -70 mV holding potential by two electrode voltage-clamp assay
[2] = target: Neuronal acetylcholine receptor; alpha4/beta4 (Rattus norvegicus) (UniProt P09483+P12392); assay: Antagonist activity at rat alpha4beta4 nAChR expressed in Xenopus laevis oocytes assessed as inhibition of Ach-induced response up to 10 uM at -70 mV holding potential by two electrode voltage-clamp assay
[3] = target: Neuronal acetylcholine receptor; alpha4/beta2 (Rattus norvegicus) (UniProt P09483+P12390); assay: Antagonist activity at rat alpha4beta2 nAChR expressed in Xenopus laevis oocytes assessed as inhibition of Ach-induced response up to 10 uM at -70 mV holding potential by two electrode voltage-clamp assay

Measured: inhibition

CC[C@H](C)[C@H](NC(=O)[C@H](CCCNC(=N)N)NC(=O)[C@H](CCCNC(=N)N)NC(=O)[C@@H]1CSSC[C@H](NC(=O)[C@H](Cc2ccc(O)cc2)NC(=O)[C@H](CCCNC(=N)N)NC(=O)CNC(=O)[C@H](CO)NC(=O)[C@H](CO)NC(=O)[C@H](CCCNC(=N)N)NC(=O)[C@H](C)NC(=O)[C@@H](N)[C@@H](C)O)C(=O)N[C@@H](CCCNC(=N)N)C(=O)N[C@@H](CO)C(=O)N2CCC[C@H]2C(=O)N[C@@H](Cc2ccc(O)cc2)C(=O)N[C@@H](CC(=O)O)C(=O)N[C@@H](CCCNC(=N)N)C(=O)N[C@@H](CCCNC(=N)N)C(=O)N[C@@H](CCCNC(=N)N)C(=O)N[C@@H](CCCNC(=N)N)C(=O)N[C@@H](Cc2ccc(O)cc2)C(=O)N1)C(=O)N[C@H](C(=O)N[C@@H](CC(=O)O)C(=O)N[C@@H](C)C(=O)N[C@@H](C)C(=O)N[C@H](C(=O)O)C(C)C)[C@@H](C)O
inactive: all assays above

CC[C@H](C)[C@H](NC(=O)[C@H](CCCNC(=N)N)NC(=O)[C@H](CCCNC(=N)N)NC(=O)[C@@H]1CSSC[C@H](NC(=O)[C@H](Cc2ccc(O)cc2)NC(=O)[C@H](CCCNC(=N)N)NC(=O)CNC(=O)[C@H](CO)NC(=O)[C@H](CO)NC(=O)[C@H](CCCNC(=N)N)NC(=O)[C@H](CO)NC(=O)[C@@H](N)[C@@H](C)O)C(=O)N[C@@H](CCCNC(=N)N)C(=O)N[C@@H](CO)C(=O)N2CCC[C@H]2C(=O)N[C@@H](Cc2ccc(O)cc2)C(=O)N[C@@H](CC(=O)O)C(=O)N[C@@H](CCCNC(=N)N)C(=O)N[C@@H](CCCNC(=N)N)C(=O)N[C@@H](CCCNC(=N)N)C(=O)N[C@@H](CCCNC(=N)N)C(=O)N[C@@H](Cc2ccc(O)cc2)C(=O)N1)C(=O)N[C@H](C(=O)N[C@@H](CC(=O)O)C(=O)N[C@@H](C)C(=O)N[C@@H](CO)C(=O)N[C@H](C(=O)O)C(C)C)[C@@H](C)O
inactive: all assays above

CC[C@H](C)[C@H](NC(=O)[C@H](CCCNC(=N)N)NC(=O)[C@H](CCCNC(=N)N)NC(=O)[C@H](C)NC(=O)[C@H](Cc1ccc(O)cc1)NC(=O)[C@H](CCCNC(=N)N)NC(=O)[C@H](CCCNC(=N)N)NC(=O)[C@H](CCCNC(=N)N)NC(=O)[C@H](CCCNC(=N)N)NC(=O)[C@H](CC(=O)O)NC(=O)[C@H](Cc1ccc(O)cc1)NC(=O)[C@@H]1CCCN1C(=O)[C@H](CO)NC(=O)[C@H](CCCNC(=N)N)NC(=O)[C@@H]1CSSC[C@H](NC(=O)[C@@H](N)[C@@H](C)O)C(=O)N[C@@H](CCCNC(=N)N)C(=O)N[C@@H](CO)C(=O)N[C@@H](CO)C(=O)NCC(=O)N[C@@H](CCCNC(=N)N)C(=O)N[C@@H](Cc2ccc(O)cc2)C(=O)N1)C(=O)N[C@H](C(=O)N[C@@H](CC(=O)O)C(=O)N[C@@H](C)C(=O)N[C@@H](C)C(=O)N[C@H](C(=O)O)C(C)C)[C@@H](C)O
inactive: all assays above

CC[C@H](C)[C@H](NC(=O)[C@H](CCCNC(=N)N)NC(=O)[C@H](CCCNC(=N)N)NC(=O)[C@H](CO)NC(=O)[C@H](Cc1ccc(O)cc1)NC(=O)[C@H](CCCNC(=N)N)NC(=O)[C@H](CCCNC(=N)N)NC(=O)[C@H](CCCNC(=N)N)NC(=O)[C@H](CCCNC(=N)N)NC(=O)[C@H](CC(=O)O)NC(=O)[C@H](Cc1ccc(O)cc1)NC(=O)[C@@H]1CCCN1C(=O)[C@H](CO)NC(=O)[C@H](CCCNC(=N)N)NC(=O)[C@@H]1CSSC[C@H](NC(=O)[C@@H](N)[C@@H](C)O)C(=O)N[C@@H](CCCNC(=N)N)C(=O)N[C@@H](CO)C(=O)N[C@@H](CO)C(=O)NCC(=O)N[C@@H](CCCNC(=N)N)C(=O)N[C@@H](Cc2ccc(O)cc2)C(=O)N1)C(=O)N[C@H](C(=O)N[C@@H](CC(=O)O)C(=O)N[C@@H](C)C(=O)N[C@@H](CO)C(=O)N[C@H](C(=O)O)C(C)C)[C@@H](C)O
inactive: all assays above

CC[C@H](C)[C@@H]1NC(=O)[C@H](CCCNC(=N)N)NC(=O)[C@H](CCCNC(=N)N)NC(=O)[C@@H](NC(=O)[C@H](Cc2ccc(O)cc2)NC(=O)[C@H](CCCNC(=N)N)NC(=O)[C@H](CCCNC(=N)N)NC(=O)[C@H](CCCNC(=N)N)NC(=O)[C@H](CCCNC(=N)N)NC(=O)[C@H](CC(=O)O)NC(=O)[C@H](Cc2ccc(O)cc2)NC(=O)[C@@H]2CCCN2C(=O)[C@H](CO)NC(=O)[C@H](CCCNC(=N)N)NC(=O)[C@H](C)NC(=O)[C@H](Cc2ccc(O)cc2)NC(=O)[C@H](CCCNC(=N)N)NC(=O)CNC(=O)[C@H](CO)NC(=O)[C@H](CO)NC(=O)[C@H](CCCNC(=N)N)NC(=O)[C@H](C)NC(=O)[C@@H](N)[C@@H](C)O)CSSC[C@@H](C(=O)N[C@H](C(=O)O)C(C)C)NC(=O)[C@H](C)NC(=O)[C@H](CC(=O)O)NC(=O)[C@H]([C@@H](C)O)NC1=O (H-TARSSGRYARSPYDRRRRYCRRITDACV-OH; disulfide 20-27)
inactive: all assays above

CC[C@H](C)[C@@H]1NC(=O)[C@H](CCCNC(=N)N)NC(=O)[C@H](CCCNC(=N)N)NC(=O)[C@H](C)NC(=O)[C@H](Cc2ccc(O)cc2)NC(=O)[C@H](CCCNC(=N)N)NC(=O)[C@H](CCCNC(=N)N)NC(=O)[C@H](CCCNC(=N)N)NC(=O)[C@H](CCCNC(=N)N)NC(=O)[C@H](CC(=O)O)NC(=O)[C@H](Cc2ccc(O)cc2)NC(=O)[C@@H]2CCCN2C(=O)[C@H](CO)NC(=O)[C@H](CCCNC(=N)N)NC(=O)[C@H](C)NC(=O)[C@H](Cc2ccc(O)cc2)NC(=O)[C@H](CCCNC(=N)N)NC(=O)CNC(=O)[C@H](CO)NC(=O)[C@H](CO)NC(=O)[C@H](CCCNC(=N)N)NC(=O)[C@@H](NC(=O)[C@@H](N)[C@@H](C)O)CSSC[C@@H](C(=O)N[C@H](C(=O)O)C(C)C)NC(=O)[C@H](C)NC(=O)[C@H](CC(=O)O)NC(=O)[C@H]([C@@H](C)O)NC1=O (H-TCRSSGRYARSPYDRRRRYARRITDACV-OH; disulfide 2-27)
inactive: all assays above

CC[C@H](C)[C@@H]1NC(=O)[C@H](CCCNC(=N)N)NC(=O)[C@H](CCCNC(=N)N)NC(=O)[C@H](CO)NC(=O)[C@H](Cc2ccc(O)cc2)NC(=O)[C@H](CCCNC(=N)N)NC(=O)[C@H](CCCNC(=N)N)NC(=O)[C@H](CCCNC(=N)N)NC(=O)[C@H](CCCNC(=N)N)NC(=O)[C@H](CC(=O)O)NC(=O)[C@H](Cc2ccc(O)cc2)NC(=O)[C@@H]2CCCN2C(=O)[C@H](CO)NC(=O)[C@H](CCCNC(=N)N)NC(=O)[C@H](CO)NC(=O)[C@H](Cc2ccc(O)cc2)NC(=O)[C@H](CCCNC(=N)N)NC(=O)CNC(=O)[C@H](CO)NC(=O)[C@H](CO)NC(=O)[C@H](CCCNC(=N)N)NC(=O)[C@@H](NC(=O)[C@@H](N)[C@@H](C)O)CSSC[C@@H](C(=O)N[C@H](C(=O)O)C(C)C)NC(=O)[C@H](C)NC(=O)[C@H](CC(=O)O)NC(=O)[C@H]([C@@H](C)O)NC1=O (H-TCRSSGRYSRSPYDRRRRYSRRITDACV-OH; disulfide 2-27)
inactive: all assays above
